Laboratory results: patent US11000543B2, “Substances containing AuCs and preparation method and use thereof” (Shenzhen Profound-View Pharma Tech Co., Ltd, priority 2017, dated 2021)

Key:
Aβ(1-40) [1] = target: T1, Aβ(1-40) (Homo sapiens, UniProt P05067); assay: AFM topography of Aβ(1-40) after 48 h coincubation; type: biochemical; conditions: coincubated for 48 h
T1 construct: Freeze-dried powder of amyloid polypeptide Aβ(1-40) (Invitrogen Corp.); purchased Invitrogen Corp
Procedure: Panel A is the AFM topography after Aβ(1-40) was incubated alone for 48 h. Panel B is an AFM topography after Aβ(1-40) was coincubated with L-NIBC for 48 h. Panel C and panel D are AFM topographies after Aβ(1-40) was coincubated with gold nanoparticles with an average particle size of 6.0 nm and 3.6 nm respectively (modified with L-NIBC) for 48 h. And […] is an AFM topography after Aβ(1-40) was coincubated with AuCs in an average particle size of 1.8 nm (modified with L-NIBC) for 48 h.

α-syn = target: T2, α-syn (Homo sapiens, UniProt P37840); assay: In vitro α-syn aggregation kinetics, ThT fluorescent labeling method; type: biochemical; conditions: L-NIBC 1.0 and 10.0 ppm; 35 μM α-syn, 37° C.
T2 construct: purchased Bachem Corp
Source text: Thioflavin T (abbreviation: ThT) is a dye for dyeing amyloid fibers specifically. […] When it encounters amyloid polypeptide or protein with a fiber structure, it will immediately couple with the amyloid polypeptides or proteins and its fluorescence intensity will increase exponentially. For this reason, ThT is widely used as markers to monitor amyloidosis of peptides or proteins. This embodiment utilizes ThT fluorescent labeling method to monitor the kinetics process of fibrosis aggregation of α-syn with the existence of AuCs. The specific experiment method was as follows:
Pretreatment of α-syn monomers: Freeze-dried powder (Bachem Corp.) of α-syn was dissolved in HFIP to obtain a 1 g/L α-syn solution. The solution was incubated at room temperature for 2-4 h after sealing, then blowed to dry HFIP by high-purity nitrogen in a fume hood. […]
Sample preparation and detection: Ligand-modified AuCs in different concentrations listed in Table 1 were added to 35 μM α-syn PBS solutions respectively, and incubated continuously in a 96-well plate at 37° C., by ThT fluorescent labeling method, and were monitored the fluorescence intensity by microplate reader once every 10 minutes. The kinetic process of α-syn aggregation was characterized through the change of fluorescence intensity of ThT. […]

[2] = test system: SH-SY5Y neuroblastoma cell line; assay: Aβ induced AD cell model, cell viability by CCK-8; type: cell-based; conditions: 20 μM Aβ(1-40), 24 h; L-NIBC 20 ppm; particles 0.01-20 ppm
Procedure: The cell viability was used as an index in the experiment of this embodiment. […] The cells used in the experiment were SH-SY5Y neuroblastoma cell line. […] Specific method:
1) SH-sy5y cells (cells had passed to the sixth generation) in logarithmic growth phase were diluted with complete medium (MEM+10% FBS+1% penicillin−streptomycin) to get a cell suspension in a density of 5×10^4/mL. The suspension was inoculated 200 μL per well into a 96-well plate, and cultivated in an incubator with 5% CO2 at 37° C. A sample was added when the cells attached to the wells.
2) 100 μL ligand-modified AuCs samples or ligand-modified gold nanoparticles samples, at different particle sizes and at concentrations of 0.04 ppm, 0.4 ppm, 4 ppm, 20 ppm, 40 ppm and 80 ppm respectively, which were dissolved by maintenance medium (MEM+2% FBS+1% penicillin-streptomycin) were added into the incubated suspension obtained from Step 1). After incubating in the incubator for 2 h, 100 μL 80 μM Aβ(1-40) was added, and then the mixture was incubated in the incubator for 24 h. […] The culture medium was removed, maintenance medium (MEM) containing 10% CCK-8 at 100 μL/well was added and was incubated for 4 h, the absorbance of each well at 450 nm was measured to reflect the prevention and treatment effects of ligand-modified AuCs on Aβ(1-40) lesion.

Aβ(1-40) [3] = target: T1, Aβ(1-40); assay: In vitro Aβ(1-40) aggregation kinetics, ThT fluorescent labeling method; type: biochemical; conditions: L-NIBC 1.0 and 10.0 ppm; 20 μM Aβ(1-40), 37° C.
Source text: Thioflavin T (abbreviation: ThT) is a dye specifically for dyeing amyloid fibers. […] When it encounters amyloid polypeptides or proteins with a fiber structure, it will immediately couple with the amyloid polypeptides or proteins and its fluorescence intensity will increase exponentially. Just because of this property, ThT is widely used as a marker to monitor amyloidosis of peptides or proteins. The fibrosis process of Aβ(1-40) is also a nucleation-controlled polymerization process. Therefore, the growth curve of Aβ(1-40) fiber measured by ThT fluorescent labeling method is mainly divided into three stages: Initial stage, growth stage and platform stage. […] All the Aβ(1-40) PBS solutions for the experiments were prepared freshly. […] The samples were incubated continuously in a 96-well plate at 37° C. by ThT fluorescent labeling method, and monitored the fluorescence intensity by microplate reader once every 10 minutes.

T1 sequence (P05067 672-711 limits assumed): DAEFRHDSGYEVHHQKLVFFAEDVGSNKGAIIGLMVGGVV

`CC(C)C(=O)N[C@@H](CS)C(=O)O` [L-NIBC, N-isobutyryl-L-cysteine] was tested, and the “Aβ(1-40) fibers in AFM topography” value (Aβ(1-40) [1]) was “no obvious effect”, the “effect on kinetics of α-syn aggregation” value (α-syn) was “did not have an obvious effect” and the “effect on cell viability in Aβ-induced AD cell model” value [2] was “did not improve cell viability”. The “effect on Aβ(1-40) amyloidosis kinetics” value (Aβ(1-40) [3]) was “no obvious effect”.
